The text below walks through data of paper PMC8745601 (International Journal of Molecular Sciences, 2021).

Data set [1] has as its system HEK293 cells expressing OATP1A2*1, *2, *3. Conditions: OATP1A2 transfected cells; 100 µmol/L doxorubicin, 72 h; versus DMSO. The protocol: (§1) Resazurin-Assay: To determine cell viability, cells were seeded at a density of 10,000 cells/well in 96-well multiplates. […] Afterward, 100 µL from each well was placed in a cavity of a 96-well plate, and the fluorescence was determined on a microplate reader (TECAN infinite M200, Tecan GmbH, Crailsheim, Germany) at an excitation wavelength of 530 nm and an emission wavelength of 590 nm.

Data set [2] deals with breast cancer cell lines MCF-7, MDA-MB-231, ZR-75-1. The experiment in a line: Resazurin cell viability assay in breast cancer cell lines. Conditions: 100 µmol/L doxorubicin, 72 h, versus DMSO. The procedure: as §1
For orientation: Alamar Blue is a resazurin reagent that responds to reducing activity.

Another data set deals with T1, OATP1A2*2 (Homo sapiens, UniProt P46721, I13T).
T1 sequence (P46721 1-670 I13T): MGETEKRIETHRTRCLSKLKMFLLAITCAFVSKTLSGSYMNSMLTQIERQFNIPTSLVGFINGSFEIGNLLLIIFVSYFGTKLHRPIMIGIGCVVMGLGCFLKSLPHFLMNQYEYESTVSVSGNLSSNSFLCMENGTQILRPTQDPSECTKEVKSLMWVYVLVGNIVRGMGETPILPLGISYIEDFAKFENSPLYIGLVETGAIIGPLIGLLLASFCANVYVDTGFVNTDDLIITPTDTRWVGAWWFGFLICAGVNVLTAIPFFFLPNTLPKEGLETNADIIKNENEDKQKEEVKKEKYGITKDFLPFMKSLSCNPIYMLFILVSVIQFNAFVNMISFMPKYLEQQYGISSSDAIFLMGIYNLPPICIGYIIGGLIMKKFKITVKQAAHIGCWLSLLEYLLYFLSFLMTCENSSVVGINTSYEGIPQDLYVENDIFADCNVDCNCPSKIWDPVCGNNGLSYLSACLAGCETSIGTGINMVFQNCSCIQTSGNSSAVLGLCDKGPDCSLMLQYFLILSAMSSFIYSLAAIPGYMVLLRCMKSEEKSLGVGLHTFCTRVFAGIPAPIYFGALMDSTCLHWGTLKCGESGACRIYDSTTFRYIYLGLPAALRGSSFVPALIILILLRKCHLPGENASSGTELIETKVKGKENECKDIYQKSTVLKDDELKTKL
The experiment in a line: in vitro.

For another data set, the system named is OATP1A2. Conditions: transiently transfected HeLa cells, ref 22 (Lee et al.); cited from earlier work.
The subject of the next data set is OCT1-3 and OATP1A2. Kind of data set: in vitro. The conditions noted are these: human, OATP1A2*1 and OCT1-3 transfected cells.

Method for OATP1A2*2: (§2) Cellular uptake studies: For all transport studies, cells were seeded in 24-well plates and incubated in a full growth medium at an initial density of 200,000 cells/well for 3 days. Before starting each transport experiment, cells were washed with a pre-warmed (37 °C) incubation buffer [64]. […] Protein concentration of whole cell lysate was determined to quantify cell density after each experiment using the BCA assay according to the manufacturer’s instructions (Pierce, Rockford, IL, USA).
(§3) Protein abundance of OATP1A2*1–*3 and OCT1–3 were measured by mass spectrometry-based targeted proteomics using a validated LC-MS/MS method as recently described [65].
200 μL of each cell lysate sample was mixed with 25 μL internal standard (5 µg/mL daunorubicin), 25 μL citric acid (1%), and 400 μL ice-cold acetonitrile for protein precipitation. […] The clear supernatant was transferred to HPLC vials. The measurement and quantitative evaluation were carried out using the LC-MS/MS system QTRAP 4000® (AB SCIEX, Darmstadt, Germany) and the Software Analyst® 1.4 (Applied Biosystems, Darmstadt, Germany).
Statistical evaluation: All experiments were performed at least three times unless otherwise noted. The OATP1A2*1–*3 and OCT1-3 net uptake was obtained by subtracting the uptake into wild-type cells from that of the transporter-transfected cells. […]
Method for OCT1-3 and OATP1A2: as §2, §3
Statistical evaluation: All experiments were performed at least three times unless otherwise noted. The OATP1A2*1–*3 and OCT1-3 net uptake was obtained by subtracting the uptake into wild-type cells from that of the transporter-transfected cells. Km and Vmax were assessed using Prism 5.01 (GraphPad Software, San Diego, CA, USA). […] Km and Vmax are presented as arithmetic means ± standard deviation.

In general, Km refers to the substrate concentration at which the rate is half of its maximum. Usually microsomal CLint stands for the capacity of the preparation to metabolise the compound, expressed as a volume cleared per time. High values mean rapid turnover, low ones slow turnover. Regarding `COc1cccc2c1C(=O)c1c(O)c3c(c(O)c1C2=O)C[C@@](O)(C(=O)CO)C[C@@H]3O[C@H]1C[C@H](N)[C@H](O)[C@H](C)O1` [doxorubicin, Doxorubicin], the “cell viability in presence of doxorubicin” value in data set [1] and in data set [2] was “significantly reduced” each time. Further, the Km at OATP1A2*2 (HEK293 cells stably expressing OATP1A2*2) was 5.84 ± 3.95 µM; in the data set with OATP1A2, 31.7 µM; in the data set with OCT1-3 and OATP1A2 it was 5 to 13 µM. In addition, on OATP1A2*2 (other cell line), the microsomal CLint is 1.39 ± 0.65 µL/min/mg.
